{"source": "patent US5902794A", "about": "(priority 1997, dated 1999)", "key": {"[1]": {"test_system": "cultured human fibroblasts", "conditions": "cited from earlier work"}, "[2]": {"test_system": "leukemic cell lines (HL-60, K-562, myc-K562, Molt-4)", "assay": "growth inhibition and viability of leukemic cell lines", "assay_type": "cell-based, human", "conditions": "for growth inhibitory effect: alone; for enhancement of the analog effect: in combination with the analogue"}, "[3]": {"test_system": "hormone-independent breast and colon cancer cell lines", "assay": "growth inhibition of hormone-independent breast and colon cancer lines", "assay_type": "cell-based, human", "conditions": "for growth inhibitory effect: alone; for enhancement of the effect of the site-selective compounds: in combination with the site-selective compounds", "procedure": "(§1) All breast cancer cell lines were grown in IMEM supplemented with 10% fetal bovine serum, 20 mM HEPES, penicillin-streptomycin, and extra glutamine. Colon carcinoma cell lines were grown in EMEM supplemented with 10% FBS, EMEM, NEAA, HEPES 20 mM, extra glutamine, and penicillin-streptomycin. The cells were grown at 37° C. in humidified incubators in an atmosphere of 5% CO2.\n(§2) For cell growth experiments, 2-3×10^5 cells/60 mm dish were seeded, and 24 hours later (Day 0), the medium was removed, and fresh medium and the additives were added then and every 48 hours thereafter The compounds of the present invention were added using 100× concentrated stock solutions. At desired times, cell counts in duplicate were performed on a Coulter counter after harvesting the cells with gentle trypsinization."}, "cells": {"test_system": "cells", "assay": "growth inhibition by 8-Cl-AMP", "assay_type": "cell-based", "conditions": "as high as 100 microM"}, "[4]": {"test_system": "MCF-7 ras breast cancer cell line", "assay": "synergistic growth inhibition by C-6 and C-8 analogue combination", "assay_type": "cell-based", "conditions": "Homo sapiens, MCF7, alone, read-out: percentage growth inhibition of analogue added alone", "procedure": "as §1, §2\nSynergism quotient was defined as the net growth inhibitory effect of the analogue combination divided by the sum of the net analogue effects on growth inhibition A quotient of >1 indicates a synergistic effect, while a quotient of <1 indicates an antagonistic effect.\nSynergism of growth inhibition was determined by treatment of\ncells with C-6 analogues and C-8 analogues alone and in combination at\nDay 0 and Day 2 and counting the cell number at Day 4"}, "[5]": {"test_system": "breast and colon cancer cells", "assay": "effect on cell morphology", "assay_type": "cell-based, human", "text": "The photographs were taken on Day 4, ×160.\nFurthermore, the synergistic growth inhibitory effect of C-6 and C-8 analogue combinations was also reflected in the change in the cell morphology."}, "R^I receptor": {"test_system": "R^I receptor", "conditions": "cited from earlier work"}, "R^II": {"test_system": "R^II", "conditions": "cited from earlier work"}, "[6]": {"test_system": "R^II cAMP receptor protein (MDA-MB-231)", "assay": "photoaffinity labelling of R^II cAMP receptor protein, MDA-MB-231", "assay_type": "cell-based, human", "conditions": "10 microM, 3 days; relative to control R^I", "procedure": "(§3) M is marker proteins of known molecular weight.\n(§4) The incubations were carried out at 23° C. for 60 minutes in 96-well immunoplates. The reaction mixtures were then irradiated for 30 seconds at 254 nm, placing a Mineralite UVS-11 hand lamp directly onto the plate. The samples were mixed with 25 microliters of 3× sample buffer (3% SDS, 15% beta-mercaptoethanol, 30 mM Tris, 30% glycerol, 1% bromophenol blue saturated solution), boiled for 3 minutes, and centrifuged at 700×g for five minutes. The samples containing 50-100 micrograms of protein were subjected to 0.05% SDS-12% PAGE. The gels were fixed, dried, and exposed to X-ray films overnight. The protein concentrations were determined by the method of Lowry et al., (J. Biol. Chem. 193: 265-275, 1951) with bovine serum albumin as standard.\n(§5) The levels of the receptor proteins are expressed relative to the R^I level in the untreated control cells of MDA-MB-231 and LS-174T, which are each set equal to 1.0 O.D.; the scale was expanded to differentiate the lower intensity bands."}, "[7]": {"test_system": "breast and colon cancer cell lines", "assay": "cell cycle progression of breast and colon cancer cell lines", "assay_type": "cell-based, human", "conditions": "vs untreated control cells", "procedure": "DNA histograms were generated on FACS II by using the DNA intercalating dye propidium iodide as described by Braylan et al. (Cytometry 2: 337-343, 1982). The percentage of cells in each cycle phase was calculated by using a PDP-11/34 computer and software as described by Neckers et al. (Mol. Cell. Biol. 6: 4244-4250, 1986).\nA determination was made whether the reduced cell proliferation observed in the cancer cell lines after treatment with the compounds of the present invention is due to a specific block in one phase of the cell cycle."}, "[8]": {"test_system": "R^I cAMP receptor protein (MDA-MB-231)", "assay": "photoaffinity labelling of R^I cAMP receptor protein, MDA-MB-231", "assay_type": "cell-based, human", "conditions": "10 microM, 3 days; control 1.0", "procedure": "as §3, §4, §5"}, "LS-174T": {"test_system": "LS-174T", "assay": "growth of LS-174T cells", "assay_type": "cell-based", "conditions": "Homo sapiens, LS174T, 72 h; 10 microM, 3 days", "procedure": "as §3, §1, §2"}, "[9]": {"test_system": "R^I cAMP receptor protein (LS-174T)", "assay": "photoaffinity labelling of R^I cAMP receptor protein, LS-174T", "assay_type": "cell-based, human", "conditions": "10 microM, 3 days; control 1.0", "procedure": "as §3, §4, §5"}, "[10]": {"test_system": "R^I and R^II cAMP receptor proteins in breast (MDA-MB-231) and colon (LS-174T) cancer cells", "assay": "R^I and R^II cAMP receptor protein levels in breast and colon cancer lines (FIG. 6)", "assay_type": "cell-based, human", "procedure": "as §3, §4"}, "[11]": {"test_system": "R^II cAMP receptor protein (LS-174T)", "assay": "photoaffinity labelling of R^II cAMP receptor protein, LS-174T", "assay_type": "cell-based, human", "conditions": "10 microM, 3 days; relative to control R^I", "procedure": "as §3, §4, §5"}, "MDA-MB-231": {"test_system": "MDA-MB-231", "assay": "growth of MDA-MB-231 cells", "assay_type": "cell-based", "conditions": "Homo sapiens, MDA-MB-231, 72 h; 10 microM, 3 days", "procedure": "as §3, §1, §2"}, "[12]": {"test_system": "hormone-dependent breast cancer lines", "conditions": "millimolar concentrations; previously reported; cited from earlier work"}, "[13]": {"test_system": "breast (MCF-7) and (LS-174T) colon cancer cell lines", "assay": "growth inhibition of breast (MCF-7) and colon (LS-174T) cancer cell lines", "assay_type": "cell-based, human", "conditions": "50 micromolar"}, "[14]": {"test_system": "disseminated neuroblastomas", "conditions": "in a combined drug regimen; cited from earlier work"}, "YAC lymphoma cell": {"test_system": "YAC lymphoma cell", "conditions": "mouse, in vivo; cited from earlier work"}}, "note": "Read-outs that look alike come from different tables or passages of the source."}
{"compound": "CC(C)Cn1c(=O)n(C)c(=O)c2[nH]cnc21", "note": "[1-methyl-3-isobutylxanthine]", "values": [{"measurement": "DNA synthesis", "setting": "[1]; added during first eight hours after serum addition", "value": "subsequent DNA synthesis was not delayed"}, {"measurement": "DNA synthesis", "setting": "[1]; added more than eight hours after serum addition", "value": "inhibitory"}, {"measurement": "growth inhibitory effect", "setting": "[2]; 0.5 mmol/L", "value": "little or no growth inhibitory effect"}, {"measurement": "enhancement of the analog effect", "setting": "[2]", "value": "could not enhance the analog effect"}, {"measurement": "growth inhibitory effect", "setting": "[3]; 0.5 mM", "value": "little or no growth inhibitory effect"}, {"measurement": "enhancement of the effect of the site-selective compounds", "setting": "[3]", "value": "could not enhance the effect"}]}
{"compound": "Nc1ncnc2c1nc(Cl)n2[C@@H]1O[C@H](COP(=O)(O)O)[C@@H](O)[C@H]1O", "note": "[8-Cl-AMP]", "values": [{"measurement": "growth inhibition", "setting": "cells", "value": "no appreciable growth inhibition"}]}
{"compound": "Nc1ncnc2c1nc(Br)n2[C@@H]1O[C@@H]2COP(=O)(O)O[C@H]2[C@H]1O", "note": "[8-bromo-cAMP]", "values": [{"measurement": "potency relative to 8-Cl-cAMP, times less potent", "setting": "[2]", "value": "5 to 20", "unit": "times"}]}
{"compound": "CNc1nc2c(N)ncnc2n1[C@@H]1O[C@@H]2COP(=O)(O)O[C@H]2[C@H]1O", "note": "[8-methylamino-cAMP]", "values": [{"measurement": "inhibition at 1 µM", "setting": "[4]", "value": 10, "unit": "%"}, {"measurement": "potency relative to 8-Cl-cAMP, times less potent", "setting": "[2]", "value": "5 to 20", "unit": "times"}]}
{"compound": "CSc1nc2c(N)ncnc2n1[C@@H]1O[C@@H]2COP(=O)(O)O[C@H]2[C@H]1O", "note": "[8-methylthio-cAMP]", "values": [{"measurement": "inhibition at 1 µM", "setting": "[4]", "value": 15, "unit": "%"}, {"measurement": "morphological change", "setting": "[5]; 100 microM, three to four days", "value": "induced the morphological change"}, {"measurement": "potency relative to 8-Cl-cAMP, times less potent", "setting": "[2]", "value": "5 to 20", "unit": "times"}]}
{"compound": "Nc1ncnc2c1nc(N1CCCCC1)n2[C@@H]1O[C@@H]2COP(=O)(O)O[C@H]2[C@H]1O", "note": "[8-piperidino-cAMP, reference compound]", "values": [{"measurement": "site selectivity of binding, R^I", "setting": "R^I receptor", "value": "binds to site 2"}, {"measurement": "site selectivity of binding, R^II", "setting": "R^II", "value": "selectively binds to site 1"}]}
{"compound": "O=C(Nc1ncnc2c1ncn2[C@@H]1O[C@@H]2COP(=O)(O)O[C@H]2[C@H]1O)c1ccccc1", "note": "[N^6 -benzoyl-cAMP]", "values": [{"measurement": "inhibition at 0.5 µM", "setting": "[4]", "value": 10, "unit": "%"}]}
{"compound": "O=P1(O)OC[C@H]2O[C@@H](n3cnc4c(NCc5ccccc5)ncnc43)[C@H](O)[C@@H]2O1", "note": "[N^6 -benzyl-cAMP]", "values": [{"measurement": "R^II relative level", "setting": "[6]", "value": "0.07 ± 0.01"}, {"measurement": "inhibition at 0.5 µM", "setting": "[4]", "value": 15, "unit": "%"}, {"measurement": "morphological change", "setting": "[5]; 0.5 microM alone, four days", "value": "did not induce a change in the cell morphology"}, {"measurement": "morphological change", "setting": "[5]; 50 microM, three to four days", "value": "induced the morphological change"}, {"measurement": "fractions of cells in G1, S and G2/M phases, in words", "setting": "[7]", "value": "not appreciably different"}, {"measurement": "R^I relative level", "setting": "[8]", "value": "0.25 ± 0.03"}, {"measurement": "activity at 10 µM", "setting": "LS-174T", "value": 35, "unit": "%"}, {"measurement": "R^I relative level", "setting": "[9]", "value": "0.20 ± 0.02"}, {"measurement": "increase in the ratio of R^II to R^I", "setting": "[10]; densitometry", "value": "two- to three-fold increase"}, {"measurement": "48,000 R^I receptor protein, in words", "setting": "[10]; three days, 10 microM", "value": "concomitant decrease"}, {"measurement": "52,000 MW (R^II) receptor protein, in words", "setting": "[10]; three days, 10 microM", "value": "increased appreciably"}, {"measurement": "R^II relative level", "setting": "[11]", "value": "0.25 ± 0.02"}, {"measurement": "activity at 10 µM", "setting": "MDA-MB-231", "value": 55, "unit": "%"}]}
{"compound": "CCCC(=O)Nc1ncnc2c1ncn2[C@@H]1O[C@@H]2COP(=O)(O)O[C@H]2[C@H]1O", "note": "[N^6 -butyryl cAMP]", "values": [{"measurement": "growth inhibition, hormone-dependent breast cancer lines", "setting": "[12]", "value": "growth inhibition only in the hormone-dependent breast cancer lines"}]}
{"compound": "O=P1(O)OC[C@H]2O[C@@H](n3c(Sc4ccc(Cl)cc4)nc4c(Nc5ccccc5)ncnc43)[C@H](O)[C@@H]2O1", "note": "[N^6-phenyl-8-p-chlorophenylthio-cAMP]", "values": [{"measurement": "growth inhibition, in words", "setting": "[13]", "value": "most potent growth inhibition among the C-6,-8 disubstituted analogues"}]}
{"compound": "COc1ccc(Cc2nccc3cc(OC)c(OC)cc23)cc1OC", "note": "[papaverine]", "values": [{"measurement": "clinical result", "setting": "[14]", "value": "promising results"}]}
{"compound": "Cn1c(=O)c2[nH]cnc2n(C)c1=O", "note": "[theophylline]", "values": [{"measurement": "growth inhibitory effect", "setting": "[2]; 0.1 mmol/L", "value": "little or no growth inhibitory effect"}, {"measurement": "enhancement of the analog effect", "setting": "[2]", "value": "could not enhance the analog effect"}, {"measurement": "growth inhibitory effect", "setting": "[3]; 0.1 mM", "value": "little or no growth inhibitory effect"}, {"measurement": "enhancement of the effect of the site-selective compounds", "setting": "[3]", "value": "could not enhance the effect"}]}
{"compound": "cholera toxin", "values": [{"measurement": "inhibition of YAC lymphoma cell proliferation", "setting": "YAC lymphoma cell", "value": "almost complete inhibition"}]}
